# Results published in patent US20240261294A1, “METHOD FOR TREATING IDH INHIBITOR-RESISTANT SUBJECTS” (Eli Lilly and Company, priority 2021, published 2024).
# Substitutions are numbered along the chain they refer to.
# How the values were obtained:
# IDH2 R140Q_G260A cis = target: T1, IDH2 R140Q_G260A cis (Homo sapiens, UniProt P48735, G260A/R140Q); assay: Inhibition of 2-HG production in IDH2 mutant U-87 MG cells; assay type: cell-based; settings: 16 hours incubation, 50K cells/well, 100 μl media/well, read-out: Relative IC50 (nM) Mean, inhibition of 2-HG production
# T1 construct: expressed in transfected cells; host or cells: U-87 MG
# T1 sequence (P48735 40-452 R140Q/G260A): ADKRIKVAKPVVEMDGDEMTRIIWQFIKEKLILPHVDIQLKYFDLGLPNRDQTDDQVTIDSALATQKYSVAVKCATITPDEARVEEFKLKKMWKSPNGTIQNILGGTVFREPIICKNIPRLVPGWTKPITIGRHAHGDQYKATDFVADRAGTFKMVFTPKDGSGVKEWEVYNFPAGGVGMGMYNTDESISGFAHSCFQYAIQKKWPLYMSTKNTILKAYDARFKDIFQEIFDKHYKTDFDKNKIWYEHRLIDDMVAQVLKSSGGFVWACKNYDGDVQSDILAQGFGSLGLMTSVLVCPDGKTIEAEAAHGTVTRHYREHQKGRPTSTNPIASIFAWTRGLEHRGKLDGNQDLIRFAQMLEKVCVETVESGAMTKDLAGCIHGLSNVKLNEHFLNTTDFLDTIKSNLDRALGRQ
# IDH2 R140L_Q316E cis = target: T2, IDH2 R140L_Q316E cis (Homo sapiens, UniProt P48735, Q316E/R140L); assay: as above; assay type: cell-based; settings: 16 hours incubation, 50K cells/well, 100 μl media/well, read-out: Relative IC50 (nM) Mean, inhibition of 2-HG production
# T2 construct: expressed in transfected cells; host or cells: U-87 MG
# T2 sequence (P48735 40-452 R140L/Q316E): T1 sequence (P48735 40-452 R140Q/G260A) with Q101L, A221G, Q277E
compound,measurement,setting,value
"C=CC(=O)N1CCN([C@@H](CC2CC2)c2ccc([C@H](C)Nc3ncc4c(n3)N(CC)C(=O)OC4)cc2)CC1 [Compound A, 7-[[(1S)-1-[4-[(1S)-2-cyclopropyl-1-(4-prop-2-enoylpiperazin-1-yl)ethyl]phenyl]ethyl]amino]-1-ethyl-4H-pyrimido[4,5-d][1,3]oxazin-2-one]",IC50,IDH2 R140Q_G260A cis,7 nM
same,IC50,IDH2 R140L_Q316E cis,145 nM
